Patent publication US20260035359A1, “HERBICIDAL IMIDAZOLE COMPOUNDS” (SYNGENTA CROP PROTECTION AG, priority 2022, published 2026)

Key:
Format in all cases: in vivo
[1] = system: Amaranthus pa/meri (AMAPA); test: Post-emergence herbicidal glasshouse test; settings: 250 g/ha, sprayed after 8 days cultivation, evaluated after 13 days
Outline: (§1)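 Damage scores on a 1–5 scale (5=81-100%; 4=61-80%; 3=41-60%; 2=21-40%; 1=0-20%) reflect percentage plant damage assessed 13 days after spraying 250 g/ha, unless otherwise stated, in acetone/water (50:50) containing 0.5% Tween 20. Pre-emergence plants were treated after one day and post-emergence plants after 8 days of cultivation.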

[2] = system: Amaranthus retoflexus (AMARE); test: Post-emergence herbicidal glasshouse test; settings: 250 g/ha, sprayed after 8 days cultivation, evaluated after 13 days
Outline: as §1

[3] = system: Echinochloa crus-gali (ECHCG); test: Post-emergence herbicidal glasshouse test; settings: 250 g/ha, sprayed after 8 days cultivation, evaluated after 13 days
Outline: as §1

[4] = system: Ipomoea hederacea (IPOHE); test: Post-emergence herbicidal glasshouse test; settings: 250 g/ha, sprayed after 8 days cultivation, evaluated after 13 days
Outline: as §1

Setaria faberi (SETFA) [5] = test: Post-emergence herbicidal glasshouse test; settings: 250 g/ha, sprayed after 8 days cultivation, evaluated after 13 days
Outline: as §1

[6] = system: Amaranthus pa/meri (AMAPA); test: Pre-emergence herbicidal glasshouse test; settings: 250 g/ha, sprayed after one day cultivation, evaluated after 13 days
Outline: as §1

[7] = system: Amaranthus retoflexus (AMARE); test: Pre-emergence herbicidal glasshouse test; settings: 250 g/ha, sprayed after one day cultivation, evaluated after 13 days
Outline: as §1

[8] = system: Echinochloa crus-gali (ECHCG); test: Pre-emergence herbicidal glasshouse test; settings: 250 g/ha, sprayed after one day cultivation, evaluated after 13 days
Outline: as §1

[9] = system: Ipomoea hederacea (IPOHE); test: Pre-emergence herbicidal glasshouse test; settings: 250 g/ha, sprayed after one day cultivation, evaluated after 13 days
Outline: as §1

Setaria faberi (SETFA) [10] = test: Pre-emergence herbicidal glasshouse test; settings: 250 g/ha, sprayed after one day cultivation, evaluated after 13 days
Outline: as §1

| SMILES | percentage damage caused to the plant, AMAPA [1] | percentage damage caused to the plant, AMARE [2] | percentage damage caused to the plant, ECHCG [3] | percentage damage caused to the plant, IPOHE [4] | percentage damage caused to the plant, SETFA (Setaria faberi (SETFA) [5]) | percentage damage caused to the plant, AMAPA [6] | percentage damage caused to the plant, AMARE [7] | percentage damage caused to the plant, ECHCG [8] | percentage damage caused to the plant, IPOHE [9] | percentage damage caused to the plant, SETFA (Setaria faberi (SETFA) [10]) |
| --- | --- | --- | --- | --- | --- | --- | --- | --- | --- | --- |
| CC(C)(C#N)CCc1nc(C(F)(F)F)cn1Cc1ncc(Cl)cn1 [Compound 1.062] | 2 (2=21-40%) | 2 (2=21-40%) | 1 (1=0-20%) | 3 (3=41-60%) | 2 (2=21-40%) | 5 (5=81-100%) | 5 (5=81-100%) | 4 (4=61-80%) | 5 (5=81-100%) | 4 (4=61-80%) |
| CCCCc1nc(C(F)F)cn1Cc1ncc(Cl)cc1F [Compound 1.054, 2-[[2-butyl-4-(difluoromethyl)imidazol-1-yl]methyl]-5-chloro-3-fluoro-pyridine] | 2 (2=21-40%) | 3 (3=41-60%) | 1 (1=0-20%) | 2 (2=21-40%) | 1 (1=0-20%) | 4 (4=61-80%) | 3 (3=41-60%) | 1 (1=0-20%) | 1 (1=0-20%) | 1 (1=0-20%) |
| C#Cc1nc(C(F)(F)F)cn1Cc1ncc(Cl)cn1 [Compound 1.084] | 2 (2=21-40%) | 2 (2=21-40%) | 1 (1=0-20%) | 1 (1=0-20%) | 1 (1=0-20%) | 1 (1=0-20%) | 2 (2=21-40%) | 1 (1=0-20%) | 1 (1=0-20%) | 1 (1=0-20%) |
| FC(F)(F)CCCc1nc(C(F)(F)F)cn1Cc1ncc(Cl)cn1 [Compound 1.025] | 5 (5=81-100%) | 5 (5=81-100%) | 5 (5=81-100%) | 4 (4=61-80%) | 5 (5=81-100%) | 5 (5=81-100%) | 5 (5=81-100%) | 5 (5=81-100%) | 5 (5=81-100%) | 5 (5=81-100%) |
| CC(=O)CCc1nc(C(F)(F)F)cn1Cc1ncc(Cl)cn1 [Compound 1.027] | 2 (2=21-40%) | 2 (2=21-40%) | 1 (1=0-20%) | 2 (2=21-40%) | 1 (1=0-20%) | 1 (1=0-20%) | 4 (4=61-80%) | 1 (1=0-20%) | 1 (1=0-20%) | 1 (1=0-20%) |
| OCCCc1nc(C(F)(F)F)cn1Cc1ncc(Cl)cn1 [Compound 1.008, 3-[1-[(5-chloropyrimidin-2-yl)methyl]-4-(trifluoromethyl)imidazol-2-yl]propan-1-ol] | 1 (1=0-20%) | 1 (1=0-20%) | 1 (1=0-20%) | 1 (1=0-20%) | 1 (1=0-20%) | 1 (1=0-20%) | 1 (1=0-20%) | 2 (2=21-40%) | 1 (1=0-20%) | 1 (1=0-20%) |
| CCOCCc1nc(C(F)(F)F)cn1Cc1ncc(Cl)cn1 [Compound 1.038] | 3 (3=41-60%) | 4 (4=61-80%) | 3 (3=41-60%) | 4 (4=61-80%) | 3 (3=41-60%) | 5 (5=81-100%) | 5 (5=81-100%) | 5 (5=81-100%) | 5 (5=81-100%) | 5 (5=81-100%) |
| C=CCCc1nc(C(F)(F)F)cn1Cc1ncc(Cl)cn1 [Compound 1.020, 2-[[2-but-3-enyl-4-(trifluoromethyl)imidazol-1-yl]methyl]-5-chloro-pyrimidine] | 2 (2=21-40%) | 3 (3=41-60%) | 2 (2=21-40%) | 2 (2=21-40%) | 1 (1=0-20%) | 5 (5=81-100%) | 5 (5=81-100%) | 5 (5=81-100%) | 4 (4=61-80%) | 4 (4=61-80%) |
| CC(O)CCc1nc(C(F)(F)F)cn1Cc1ncc(Cl)cn1 (stereo not drawn) [Compound 1.082] | 3 (3=41-60%) | 2 (2=21-40%) | 1 (1=0-20%) | 1 (1=0-20%) | 1 (1=0-20%) | 2 (2=21-40%) | 4 (4=61-80%) | 1 (1=0-20%) | 1 (1=0-20%) | 2 (2=21-40%) |
| FC(F)(F)CCCc1nc(Br)cn1Cc1ncc(Cl)cn1 [Compound 1.003, 2-[[4-bromo-2-(4,4,4-trifluorobutyl)imidazol-1-yl]methyl]-5-chloro-pyrimidine] | 2 (2=21-40%) | 2 (2=21-40%) | 1 (1=0-20%) | 2 (2=21-40%) | 1 (1=0-20%) | 1 (1=0-20%) | 1 (1=0-20%) | 1 (1=0-20%) | 2 (2=21-40%) | 1 (1=0-20%) |
| FC(F)(F)c1cn(Cc2ncc(Cl)cn2)c(CCl)n1 [Compound 1.071, 5-chloro-2-[[2-(chloromethyl)-4-(trifluoromethyl)imidazol-1-yl]methyl]pyrimidine] | 1 (1=0-20%) | 1 (1=0-20%) | 1 (1=0-20%) | 1 (1=0-20%) | 1 (1=0-20%) | 2 (2=21-40%) | 3 (3=41-60%) | 1 (1=0-20%) | 1 (1=0-20%) | 1 (1=0-20%) |
| N#CC1(c2nc(C(F)(F)F)cn2Cc2ncc(Cl)cc2F)CC1 [Compound 1.069] | 4 (4=61-80%) | 4 (4=61-80%) | 1 (1=0-20%) | 4 (4=61-80%) | 1 (1=0-20%) | 4 (4=61-80%) | 5 (5=81-100%) | 1 (1=0-20%) | 4 (4=61-80%) | 1 (1=0-20%) |
